Experimental data taken from US8183213B2, “Combination therapy comprising glucose reabsorption inhibitors and retinoid-X receptor modulators” (Ortho McNeil Pharmaceutical, Inc., priority 2001, dated 2012).
Where two headings read alike, the source gives them in different places. Each block holds one compound with its values, some of them ahead of it.

Legend:
[1] = molecular target: T1, SGLT1 (Homo sapiens, UniProt P13866); details: Kidney (S1, S3), cited from earlier work; for Km: for D-glucose
T1 sequence (P13866 1-664): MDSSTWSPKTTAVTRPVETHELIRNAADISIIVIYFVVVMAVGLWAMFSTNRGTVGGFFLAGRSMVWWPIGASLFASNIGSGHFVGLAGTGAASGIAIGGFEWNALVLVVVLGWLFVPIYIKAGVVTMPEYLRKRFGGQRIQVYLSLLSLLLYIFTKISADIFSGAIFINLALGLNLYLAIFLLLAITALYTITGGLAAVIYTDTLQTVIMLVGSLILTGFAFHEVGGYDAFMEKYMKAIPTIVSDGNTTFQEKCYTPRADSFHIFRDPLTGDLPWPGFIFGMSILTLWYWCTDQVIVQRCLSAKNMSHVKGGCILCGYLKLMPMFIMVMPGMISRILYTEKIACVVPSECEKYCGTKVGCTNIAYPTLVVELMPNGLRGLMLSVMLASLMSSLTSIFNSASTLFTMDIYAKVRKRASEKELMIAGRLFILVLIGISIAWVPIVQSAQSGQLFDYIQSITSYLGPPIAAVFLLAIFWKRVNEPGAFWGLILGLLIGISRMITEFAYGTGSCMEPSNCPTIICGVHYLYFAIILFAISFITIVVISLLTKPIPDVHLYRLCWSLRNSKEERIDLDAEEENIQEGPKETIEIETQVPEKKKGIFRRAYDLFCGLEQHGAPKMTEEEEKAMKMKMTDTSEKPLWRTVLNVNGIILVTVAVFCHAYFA

[2] = tested on: SGLT2 (SAAT1); details: Kidney (S3), cited from earlier work; for Km: for D-glucose
[3] = tested on: Na^+-glucose co-transporters located in chorionic membrane of the intestine and the kidney; details: cited from earlier work
[4] = tested on: renal tubular glucose reabsorption; details: subcutaneous daily administration; cited from earlier work
[5] = Body weight after oral dosing of MX-6054 +/- T-1095 (Example 5); format: in vivo; details: oral dosing (title: 35 day), db/db mice
Description: To examine the effect of T-1095 in combination with a RXR agonist, male db/db mice (7 weeks of age/Jackson Labs, […]), an RXR agonist such as MX-6054 (0.1 mg/kg-10 mg/kg), T-1095 (100 mg/kg), or MX-6054 plus T-1095. Mice (n=8 animals/group) received the test compounds or vehicle by oral gavage in a volume of 10 ml/kg of body weight. […] […] Mice were then bled by retro-orbital sinus puncture into 2 mL heparinized polypropylene tubes on ice. Livers were excised, weighed and frozen.

[6] = Liver weight after oral dosing of MX-6054 +/- T-1095 (Example 5); format: in vivo; details: db/db mice; for liver weight (title: Effects on body and liver weights): oral dosing (title: 35 day), in g (unit assumed)
[7] = tested on: diabetic rodent models (STZ-induced diabetic rat, yellow KK mice, db/db mice, Zucker Diabetic Fatty rats and GK rats); details: cited from earlier work
[8] = tested on: db/db mice; experiment: Fed plasma glucose after oral dosing of MX-6054 +/- T-1095 (Example 5); format: in vivo; details: ± SEM
Description: (§1) To examine the effect of T-1095 in combination with a RXR agonist, male db/db mice (7 weeks of age/Jackson Labs, ME) were treated daily for 11 days with vehicle (0.5% methylcellulose), an RXR agonist such as MX-6054 (0.1 mg/kg-10 mg/kg), T-1095 (100 mg/kg), or MX-6054 plus T-1095. Mice (n=8 animals/group) received the test compounds or vehicle by oral gavage in a volume of 10 ml/kg of body weight. Body weight was recorded on day 1, prior to dosing, and days 4, 8 and 11. Two hours after the final dose (day 11), mice were weighed and anesthetized with CO2/O2 (70:30). Mice were then bled by retro-orbital sinus puncture into 2 mL heparinized polypropylene tubes on ice. Livers were excised, weighed and frozen.
(§2) Plasma samples were then assayed for glucose and triglycerides using Trinder reagent (Sigma Diagnostics) and GPO-Trinder (Sigma Diagnostics).

[9] = tested on: db/db mice; experiment: Fed plasma triglycerides after oral dosing of MX-6054 +/- T-1095 (Example 5); format: in vivo; details: ± SEM
Description: as §1, §2

[10] = tested on: SGLT in the kidney; details: cited from earlier work
[11] = molecular target: T2, SGLT-2 in the kidney (Homo sapiens, UniProt P31639); details: compared with T-1095; cited from earlier work
T2 sequence (P31639 1-672): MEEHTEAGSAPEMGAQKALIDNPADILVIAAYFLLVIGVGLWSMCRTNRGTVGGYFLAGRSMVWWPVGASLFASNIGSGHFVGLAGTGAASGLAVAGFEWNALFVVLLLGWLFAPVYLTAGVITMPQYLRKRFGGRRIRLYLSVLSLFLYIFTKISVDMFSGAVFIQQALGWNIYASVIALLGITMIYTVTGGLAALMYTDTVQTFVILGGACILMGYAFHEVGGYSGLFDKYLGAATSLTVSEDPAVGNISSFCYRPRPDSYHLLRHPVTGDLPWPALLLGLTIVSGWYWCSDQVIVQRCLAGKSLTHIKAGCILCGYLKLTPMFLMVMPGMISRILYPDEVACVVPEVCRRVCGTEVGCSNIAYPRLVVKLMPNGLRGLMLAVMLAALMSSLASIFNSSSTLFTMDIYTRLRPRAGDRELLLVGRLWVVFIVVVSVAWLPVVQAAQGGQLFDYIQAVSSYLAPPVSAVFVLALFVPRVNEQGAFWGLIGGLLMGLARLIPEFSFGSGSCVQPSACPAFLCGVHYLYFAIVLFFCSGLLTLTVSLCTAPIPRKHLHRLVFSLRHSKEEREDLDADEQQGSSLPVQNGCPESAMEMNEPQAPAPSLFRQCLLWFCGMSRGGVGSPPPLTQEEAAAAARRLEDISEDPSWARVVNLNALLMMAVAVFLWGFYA

[12] = 100 mpk T-1095, 11 day oral dosing
[13] = 0.1 mpk MX-6054, 11 day oral dosing
[14] = 0.3 mpk MX-6054, 11 day oral dosing
[15] = 1 mpk MX-6054, 11 day oral dosing
[16] = 3 mpk MX-6054, 11 day oral dosing
[17] = 10 mpk MX-6054, 11 day oral dosing

Structure (SMILES): O=C[C@H](O)[C@@H](O)[C@H](O)[C@H](O)CO [D-glucose]
Km ([1]; read-out: Km In vivo): 300 µM | Km ([1]; read-out: Km in vitro): 390 µM | TmG in vitro (Maximal transport rate) [1]: 7.9 pmol/min/mm | Km ([2]; read-out: Km In vivo): 6000 µM | Km ([2]; read-out: Km in vitro): 1640 µM | TmG in vitro (Maximal transport rate) [2]: 83 pmol/min/mm

Structure (SMILES): O=C(CCc1ccc(O)cc1)c1c(O)cc(O)cc1O[C@@H]1O[C@H](CO)[C@@H](O)[C@H](O)[C@H]1O [phlorizin]
Na^+-glucose co-transporter activity [3]: inhibits | glucose level in a plasma [4]: controlled at a normal level for a long time

liver weight (title: Effects on body and liver weights) ([6]; 100 mpk T-1095): 1.64 ± 0.07 | MX-6054-induced increase in liver weight ([6]; co-administration of T-1095 with MX-6054): prevented
Structure (SMILES): COC(=O)OCC1OC(Oc2cc(C)cc(O)c2C(=O)CCc2ccc3occc3c2)C(O)C(O)C1O (centres unmarked) [T-1095]
body weight (title: Effects on body and liver weights) ([5]; 100 mpk T-1095): 0.7 ± 0.3 | adding weight, infection in the urinary tracts, electrolyte imbalance in plasma, changes in food intake, acute hypoglycemic shock, pathological changes in the kidney ([7]; during treatment with T-1095): no observed sign | oral glucose tolerance test and hyperinsulinemic euglycemic clamp studies ([7]; in vivo, po): improvement of glucose tolerance and the reduction of insulin resistance | elevated blood glucose levels ([7]; oral administration, rodent models of IDDM and NIDDM): suppress elevated blood glucose levels | fed and fasting blood glucose levels and HbA1c ([7]; treatment for 3 weeks to 6 months, diabetic rodent models): reduced | hyperinsulinemia, hypertriglyceridemia, and the development of microalbuminuria ([7]; yellow KK mice and other diabetic mice models): decrease | Glucose [8, 12]: 201 ± 9 mg/dL | Triglycerides [9, 12]: 196 ± 11 mg/dL

Structure (SMILES): Cc1cc2c(cc1-c1cc(/C=C3\SC(=O)NC3=O)ccc1OC(F)(F)F)C(C)(C)CCC2(C)C [MX-6054, 2,4-thiazolidinedione, 5-[[3-(5,6,7,8-tetrahydro-3,5,5,8,8-pentamethyl-2-naphthalenyl)-4-(trifluoromethoxy)phenyl]methylene]-, (5Z)-]
body weight (title: Effects on body and liver weights) ([5]; 0.1 mpk MX-6054): −0.7 ± 0.7 | body weight (title: Effects on body and liver weights) ([5]; 0.3 mpk MX-6054): 0.2 ± 0.4 | body weight (title: Effects on body and liver weights) ([5]; 1 mpk MX-6054): 0.6 ± 0.6 | body weight (title: Effects on body and liver weights) ([5]; 3 mpk MX-6054): −0.8 ± 1.3 | body weight (title: Effects on body and liver weights) ([5]; 10 mpk MX-6054): 2.5 ± 1.1 | liver weight (title: Effects on body and liver weights) ([6]; 0.1 mpk MX-6054): 1.76 ± 0.11 | liver weight (title: Effects on body and liver weights) ([6]; 0.3 mpk MX-6054): 1.93 ± 0.09 | liver weight (title: Effects on body and liver weights) ([6]; 1 mpk MX-6054): 1.98 ± 0.09 | liver weight (title: Effects on body and liver weights) ([6]; 3 mpk MX-6054): 1.89 ± 0.09 | liver weight (title: Effects on body and liver weights) ([6]; 10 mpk MX-6054): 2.38 ± 0.16 | liver weight, effect of treatment in words ([6]; treatment with MX-6054): significant increase | Glucose [8, 13]: 357 ± 46 mg/dL | Glucose [8, 14]: 342 ± 41 mg/dL | Glucose [8, 15]: 406 ± 57 mg/dL | Glucose [8, 16]: 255 ± 42 mg/dL | Glucose [8, 17]: 224 ± 13 mg/dL | Triglycerides [9, 13]: 260 ± 24 mg/dL | Triglycerides [9, 14]: 262 ± 25 mg/dL | Triglycerides [9, 15]: 259 ± 28 mg/dL | Triglycerides [9, 16]: 206 ± 24 mg/dL | Triglycerides [9, 17]: 189 ± 11 mg/dL

Structure (SMILES): Cc1cc(O)c(C(=O)CCc2ccc3occc3c2)c(OC2OC(CO)C(O)C(O)C2O)c1 (centres unmarked) [T-1095A]
inhibition of SGLT in the kidney [10]: selective and potent inhibitor | substrate for the inhibition of SGLT-2 in the kidney [11]: better substrate
